From US11439655B2, “Compounds for use in wound healing and angiogenesis” (UNIVERSITY OF SOUTH CAROLINA, priority 2017, dated 2022)

What was measured:
[1] = test system: NHEKs; experiment: In vitro scratch assay (simulated wound closure, cell migration); format: cell-based, human; conditions: for NHEK gap closure / level of wound closure vs control: compounds 10 and 20 μg/ml, extract 50 μg/ml, over 20 h, control growth media; for time of wound closure of keratinocyte compared to the control (growth media): after multiple different time intervals
Method: (§1) In Vitro Scratch Assay Cell migration was assessed through making a scratch on confluent monolayers of NHDFs and NHEKs. A total of 15×10^4 cells per well were seeded on a 24 well plate and left overnight to reach confluency. The cell layer was then scraped using a 200 μl pipet tip and any cell debris was washed away with PBS. The samples were supplemented with different concentration of the compounds of interest in growth media and incubated at 37° C. and 5% CO2 for 20 hours. Images were taken every 4 hours using a phase contrast Nikon Eclipse Ti-E inverted microscope. Quantification of percent wound healing was performed by measuring the gap distance using the following formula, [formula] where Wn is the width of gap after every 4 hours and W0 is the initial width zero right after forming a scratch. Capillary Tube Formation

[2] = test system: NHDFs; experiment: as above; format: cell-based, human; conditions: for time of wound closure of fibroblast compared to the control (growth media): after multiple different time intervals
Method: as §1

[3] = test system: HUVECs; experiment: Capillary tube formation on matrigel; format: cell-based, human; conditions: 10 and 20 μg/ml
Method: [formula] where Wn is the width of gap after every 4 hours and W0 is the initial width zero right after forming a scratch. Capillary Tube Formation Matrigel kept in a −20° C. freezer and thawed on ice overnight in a 4° C. refrigerator. A total of 50 μl of thawed matrigel was added to each well of pre-chilled 96-well plate and then incubated for 30 min at 37° C. to form a gel. Next, 100 μl of a HUVEC cell suspension (passage 2-6) in conditioned media (20000 cell/well) including the compounds of this invention was added to gel and incubated at 37° C. for 8 hours. The number of junctions in tubes was examined using a phase contrast inverted microscope (Invitrogen EVOS FL Auto Cell Imaging) and compared to the conditions with no compound (negative control).

[4] = test system: Normal Human Dermal Fibroblasts (NHDFs); experiment: Cytotoxicity assay (MTS), cell viability/proliferation; format: cell-based; conditions: 24 h exposure, 10, 20, 50 and 100 μg/ml, vs control and DMSO vehicle control
Method: (§2) Human Umbilical Vein Endothelial cells (HUVEC), Adult Normal Human Epidermal Keratinocytes (NHEK), Normal Human Dermal fibroblast (NHDF) and related media for cell culture including endothelial basal and growth medium-2 (EBM-2, EGM-2), keratinocyte basal and growth medium-2 (KBM-2, KGM™-2), fibroblast basal and growth medium (FBM, FGM™) were purchased from Lonza. The cell types were selected due to their important physiologic role in early and late stages of wound healing. Cells were incubated at 37° C. and 5% CO2 throughout the examples. Phosphate-Buffered Saline (PBS), [3-(4,5-dimethylthiazol-2-yl)-5-(3-carboxymethoxyphenyl)-2-(4-sulfophenyl)-2H-tetrazolium (MTS) (Promega) colorimetric assay and growth factor reduced matrigel BD (Corning) were from Sigma-Aldrich.
(§3) In order to determine cell viability, HUVECs, NHDFs, and NHEKs were cultured in their growth media to reach 80% confluency. Cells were seeded at the density of 5×10^3 cell per 96 well plate in a total volume of 100 μl in each well. After seeding, the cells were incubated for 24 hours at 37° C. and 5% CO2 to allow for cell attachment. Media was changed and replaced with media supplemented with the desired concentration of the test compounds (10, 20, 50 and 100 μg/ml), being first dissolved at 10 mg/ml in DMSO and subsequently diluted in culture media. The vehicle control was culture medium supplemented with DMSO 0.5% (Macron Fine Chemicals), representing the highest final concentration of DMSO used to dissolve the natural compound. Following 24 hours of incubation, […] and incubated for 2 hours.

[5] = test system: Normal Human Epidermal Keratinocytes (NHEKs); experiment: as above; format: cell-based; conditions: 24 h exposure, 10, 20, 50 and 100 μg/ml, vs control and DMSO vehicle control
Method: as §2, §3

[6] = test system: Human Umbilical Vein Endothelial Cells (HUVECs); experiment: as above; format: cell-based; conditions: 24 h exposure, 10, 20, 50 and 100 μg/ml, vs control and DMSO vehicle control
Method: as §2, §3

SMILES | percentage of gap closed (simulated wound closure) ([1]; NHEKs, 10 μg/ml, 6 h) | NHEK gap closure / level of wound closure vs control ([1]; NHEKs) | NHEK migration rate at higher concentration ([1]; NHEKs, higher concentration (20 μg/ml) vs 10 μg/ml) | time of wound closure of keratinocyte compared to the control (growth media) [1] | NHDF gap closure / migration into the scratched gap vs control ([2]; NHDFs, compounds 10 and 20 μg/ml, extract 50 μg/ml, over 20 h) | time of wound closure of fibroblast compared to the control (growth media) [2] | capillary tube (tubule) formation, phase contrast microscopy [3] | NHDF gap closure ([2]; NHDFs, 10 μg/ml, all time points up to 20 h) | NHDF wound closure at higher concentration ([2]; NHDFs, higher concentration (20 μg/ml), early time points) | number of junctions relative to control groups ([3]; 8 h) | toxicity (cell viability, MTS assay) [4] | toxicity (cell viability, MTS assay) [5] | toxicity (cell viability, MTS assay) [6]
O=C(/C=C/c1ccc(O)c(O)c1)O[C@@H]1C[C@](O)(C(=O)O)C[C@@H](O)[C@H]1O [3-O-caffeoylquinic acid] | approximately 40% | highest level of wound closure | did not lead to a faster migration rate | reduced time of wound closure | delayed effect on NHDF gap closure at 20 h post-seeding | reduced time of wound closure | formation of tubules assembled by the elongation and joining of HUVECs |  |  |  |  |  | 
C[C@H]1O[C@@H](Oc2c(-c3cc(O)c(O)c(O)c3)oc3cc(O)cc(O)c3c2=O)[C@@H](O)[C@@H](O)[C@@H]1O [myricetin-3-o-ß-rhamnoside] |  | Neither myricetin-3-o-ß-rhamnoside nor total P. persica extract led to a significantly higher NHEK gap closure than the control |  | reduced time of wound closure |  | reduced time of wound closure | formation of tubules assembled by the elongation and joining of HUVECs | accelerated gap closure at all time points | negative effect on wound closure during early time points | approximately 3 fold | No toxicity was observed | No toxicity was observed | No toxicity was observed
